Laboratory results: patent US6573255B1, “Vitamin D analogues” (Leo Pharmaceutical Products Ltd., A/S, priority 1999, dated 2003)
Read-outs that look alike come from different tables or passages of the source.

Assays:
[1] = in vitro model of metabolic stability, rat liver homogenate S-9; assay type: in vitro ADME
Source text: Another problem using vitamin D analogues in the non-topical treatment of hyperproliferative diseases, such as cancer, is metabolic stability in vivo. This stability has to be above a certain minimum level, for a compound to be used in practical therapy.

[2] = tested on: U937 leukemia cell; experiment: U937 leukemia cell assay (antiproliferative activity); assay type: cell-based; conditions: for U937, -log IC50: U937 leukemia cells; for U937, rel.: geometric mean of the ratios relative to 1α,25(OH)2D3, higher = more potent
Source text: (§1) The present invention provides a hitherto undisclosed series of vitamin D analogues which is characterised by the presence of an additional hydroxy group or halogen atom in the 26 position of the side chain.

[3] = calcemic activity, rat calciuric model (urinary excretion of calcium)
Source text: as §1

[4] = tested on: HaCaT; experiment: HaCaT assay, a psoriasis model; assay type: cell-based; conditions: for HaCaT, -log IC50: HaCaT cells; for HaCaT, rel.: geometric mean of the ratios relative to 1α,25(OH)2D3, higher = more potent
Source text: as §1

[5] = tested on: MCF-7 mammary cancer cell; experiment: MCF-7 mammary cancer cell assay (antiproliferative activity); assay type: cell-based; conditions: for MCF-7, -log IC50: MCF-7 mammary cancer cells; for MCF-7, rel.: geometric mean of the ratios relative to 1α,25(OH)2D3, higher = more potent
Source text: as §1

[6] = tested on: different types of cancer cells; conditions: brain glial tumor, MCF-7, NB4, HL-60, acute myeloid leukemia, MG-63 cells; cited from earlier work
[7] = tested on: human carcinoma cells; conditions: in vitro; cited from earlier work
[8] = relative to 1α,25(OH)2D3; cited from earlier work
[9] = chronically uraemic rats with secondary hyperparathyroidism; cited from earlier work
[10] = tested on: mammary tumours; conditions: rats with mammary tumours, 1 μg/kg body weight for 28 days; cited from earlier work

| SMILES | S-9, metab. in vitr.: fraction left after 1 hour incubation [1] | U937, -log IC50 [2] | U937, rel. [2] | Calcem.; in vivo ([3]; rat, in vivo) | HaCaT, -log IC50 [4] | HaCaT, rel. [4] | MCF-7, -log IC50 [5] | MCF-7, rel. [5] | T½ ([1]; rat liver homogenate S-9) [h] | half-life ([1]; rat) [h] | inhibitory activity on proliferation of cancer cells [6] | S-9, metab. in vitr.: fraction left after 1 hour incubation ([1]; rat liver homogenate S-9, 1 hour incubation) | stability in in vitro model of metabolic stability ([1]; rat liver homogenate S-9, compared to seocalcitol and 1α,25(OH)2D3) | Calcem.; in vivo ([3]; rat calciuric model, geometric mean of the ratios relative to 1α,25(OH)2D3) | inhibiting the invasiveness of human carcinoma cells [7] | calcemic vitamin D activity, urinary excretion of calcium in rats, % of that of 1α,25(OH)2D3 [8] [%] | plasma PTH level [9] | plasma phosphate level [9] | reduction of the initial tumour volume [10] [%] | serum calcium concentration [10] |
| --- | --- | --- | --- | --- | --- | --- | --- | --- | --- | --- | --- | --- | --- | --- | --- | --- | --- | --- | --- | --- |
| C=C1/C(=C\C=C2/CCC[C@]3(C)[C@@H]([C@@H](C)[C@@H](C#CC[C@@](O)(CC)[C@@H](C)O)OCC)CC[C@@H]23)C[C@@H](O)C[C@@H]1O [Compound 108, 1(S),3(R)-Dihydroxy-20(R)-(5(S),6(R)-dihydroxy-1(S)-ethoxy-5-ethyl-2-heptyn-1-yl)-9,10-secopregna-5(Z),7(E),10(19)-triene] | 0.29 | 8.9 ± 0.2 | 49 | 0.6 | 8.8 ± 0.2 | 30 | 9.8 ± 0.2 | 89 |  |  |  |  |  |  |  |  |  |  |  |  |
| C=C1C(=CC=C2CCCC3(C)C2CCC3C(C)C(C#CCC(O)(CC)C(C)O)OCC)CC(O)CC1O [Compound 103, 1(S),3(R)-Dihydroxy-20(R)-(5(S),6(S)-dihydroxy-1(S)-ethoxy-5-ethyl-2-heptyn-1-yl)-9,10-secopregna-5(Z),7(E),10(19)-triene] | 0.43 | 9.0 ± 0.2 | 36 | 0.11 | 9.0 ± 0.3 | 38 | 9.9 ± 0.1 | 153 |  |  |  |  |  |  |  |  |  |  |  |  |
| C=C1/C(=C\C=C2/CCC[C@]3(C)[C@@H]([C@H](C)CCCC(C)(C)O)CC[C@@H]23)C[C@@H](O)C[C@@H]1O [1α,25(OH)2D3] |  | 7.5 ± 0.3 | 1.0 | 1.0 |  | 1.0 | 7.7 ± 0.3 | 1.0 | 2.5 |  |  |  |  |  |  |  |  |  |  |  |
| C=C1/C(=C\C=C2/CCC[C@]3(C)[C@@H]([C@H](C)/C=C/C=C/C(O)(CC)CC)CC[C@@H]23)C[C@@H](O)C[C@@H]1O [seocalcitol] |  |  |  |  |  |  |  |  |  | 1.3 |  |  |  |  |  |  |  |  |  |  |
| C=C1C(=CC=C2CCCC3(C)C2CCC3C(C)C(C#CCC(O)(CC)CC)OCC)CC(O)CC1O (stereo not drawn) [CB1093, 20-epi-22-ethoxy-23-yne-24a, 26a, 27a, trishomo-1α,25(OH)2D3 vitamin D3] |  | 9.5 ± 0.1 | 74 |  | 8.7 ± 0.9 | 18 | 10.2 ± 0.3 | 311 |  |  | potent inhibitory activity | 0.02 | quite low | 0.27 | potent activity | 27 | significantly decreased | significantly decreased | 49 | slight increase |
